Literature values in patent publication US6107342A, “2-amino-bicyclo[3.1.0]hexane-2,6-dicarboxylic acid derivatives and a process for the preparation thereof” (Hoffmann-La Roche Inc., priority 1998, dated 2000).

What was measured:
[1] = target: group II metabotropic glutamate receptor; details: antagonism of inhibition by LY354740; Mol. Pharmacology, Vol.53, 228-233 (1998)
mGluR2 = details: Mol. Pharmacology, Vol.53, 228-233 (1998)
mGluR3 = details: Mol. Pharmacology, Vol.53, 228-233 (1998)

pKB [1]: 6.0
Ki (mGluR2): 0.052 µM
Ki (mGluR3): 0.089 µM
Compound: N[C@]1(C(=O)O)[C@H]2[C@@H](C[C@H]1O)[C@@H]2C(=O)O [I-A, (1S,2R,3R,5R,6S)-2-amino-3-hydroxy-bicyclo [3.1.0]hexane-2,6-dicarboxylic acid]
